Measured values from PMC6100512, “In-Vitro Activity of Silybin and Related Flavonolignans against Leishmania infantum and L. donovani” (Molecules : A Journal of Synthetic Chemistry and Natural …, 2018).

Key:
[1] = system: Li UCM9 promastigotes; assay: Multiplication of Li promastigotes in vitro (CellTiter-Glo, 24 h); format: cell-based, Leishmania infantum; conditions: for IC50: approximate, dose-response curve; for IC50 / inhibition of growth at 120 µM: 24 h; for inhibition of growth at 120 µM: compared to untreated cultures, mean ± SD, read-out: Reduction (%) of multiplication, L infantum promastigotes
Protocol: (§1) Growth was estimated by the addition of CellTiter-Glo® (Promega, Madison, WI, USA) (1:1) in 96-well microtiter white plates (Costar, Corning). After 10 min incubation (light protected, room temperature), luminescence was determined with FLUOstar Omega (BMG Labtech) reader. Sensitivity of Ld was similarly performed with promastigotes exposed to 120 μM. Control cultures (medium, untreated promastigotes, promastigotes treated with 0.2 μM AmB) were included. Experiment was carried out in triplicate and results expressed as % of inhibition of untreated control. Approximate IC50 values of the flavonolignans showing the highest inhibitory activity against Li mid-log-phase promastigotes were determined using dose-response curves. […] The compound with the highest activity, DhiS-A, was assayed against Ld promastigotes using the latter dilution series and the same culture conditions as above. For comparative purposes, mid-log promastigotes of Li and Ld were exposed to established anti-Leishmania agents: AmB (0.0078 μ[…] and 1.0 μM); […]

[2] = system: Ld promastigotes; assay: Multiplication of Ld promastigotes in vitro (CellTiter-Glo, 24 h); format: cell-based, L. donovani; conditions: Leishmania donovani; for inhibition of growth at 120 µM: compared to untreated cultures, mean ± SD, read-out: Reduction (%) of multiplication, L. donovani promastigotes
Protocol: as §1

[3] = system: intracellular amastigotes of Li BCN150; assay: Activity against intracellular amastigotes ex vivo in mouse peritoneal Mφ; format: cell-based, Leishmania infantum; conditions: 24 h
Protocol: Antiproliferative activity of flavonolignans against intracellular amastigotes was determined ex vivo using mouse peritoneal Mφ. Infections were carried out following the method and modifications described by us. Briefly, Mφ were seeded onto 8-well cell culture slides (SLP, Lifesciences Co., Pocheon, Korea) in a final volume of 400 µL (2.5 × 10^4 Mφ/well). Plates were incubated overnight at 37 °C under humidified 5% CO2/95% air atmosphere to facilitate adherence. Stationary-phase promastigotes of Ld and Li were centrifuged (370× g, 10 min) without break in a Ficoll (Sigma, Saint Louis, MO, USA) gradient (0%, 10% in Medium 199 and 30% in sterile phosphate-buffered saline). Metacyclic promastigotes, located in the 10–30% Ficoll interphase, were recovered, washed and opsonized in 15% normal mouse serum in 1:1 solution of RPMI and HBSS medium (Gibco, Life Technologies, Paisley, UK), 0.15 mM CaCl2 and 1 mM MgCl2 at 37 °C, 5% CO2 atmosphere for 30 min. Purified metacyclic promastigotes were added to the Mφ cultures using a ratio 4:1 (promastigotes:Mφ) for Li and 10:1 for Ld. Plates were incubated at 33 °C overnight as above. Noninternalized promastigotes were eliminated by repeated washing with fresh medium. Treatments (10 µM) were added to the cultures and kept for 24 h. Slides were methanol-fixed and stained with May–Grünwald Giemsa (Merck) to determine the % of infection and the number of amastigotes/100 Mφ under microscope. Cultures untreated, treated with 0.05% DMSO and treated with 0.1 µM AmB were included as controls. Experiments were done in triplicate and the activity was expressed as % of inhibition compared to untreated cultures.

[4] = system: Li promastigotes; assay: Drug combination with DhiS-A, Chou-Talalay method (CalcuSyn); format: cell-based, Leishmania infantum; conditions: for Dose Required of Dn in combination with DhiS-A: computer-simulated; for DRI of Dn in combination with DhiS-A: fold dose reduction vs single agent; for Type of interaction with DhiS-A: Li promastigotes, fixed ratios AmB 0.01:15, Sb^III 1:1, PMM 5:1 (Dn:DhiS-A)
Protocol: Fixed-combination ratios of drugs were based on the IC50 values determined for the individual molecules. Mid-log-phase promastigotes of Li were exposed for 24 h at constant ratios of 0.01:15 (AmB:DhiS-A), 1:1 (Sb^III:DhiS-A) and 5:1 (PMM:DhiS-A). Dose–response curves of the combinations were analyzed with the Chou–Talalay method, based on the theorem of combination index (CI)-isobologram and CalcuSyn software. This method allows the evaluation of the type of interaction between two molecules according to mass action law. Results can be used to determine quantitatively the synergy (CI < 1), additive effect (CI = 1) or antagonism (CI > 1) of combinations. Moreover, the program allows the calculation of the drug reduction index (DRI): dose reduction in drug combinations to reach a given inhibition compared to the activity of the individual drugs.

[5] = system: BALB/c mouse peritoneal macrophages, Mφ; assay: Toxicity of flavonolignans for macrophages (CellTiter-Glo); format: cell-based; conditions: Peritoneal macrophage, 24 h, 28.125 to 900 µM, approximate
Protocol: Toxicity of flavonolignans for mammalian cells was determined using mouse peritoneal Mφ. Cells obtained were counted and seeded onto 96-well cultures plates (Costar, Corning) at a final concentration of 5 × 10^4 Mφ/well (100 µL/well). Plates were incubated overnight at 37 °C and humidified 5% CO2/95% air to facilitate adherence. Cells were cultured as above for 24 h with different concentrations of the flavonolignans (28.125 µM, 56.25 µM, 112.5 µM, 225 µM, 450 µM and 900 µM). After incubation, cell viability was determined with CellTiter-Glo® as previously described. Untreated and 300 µM AmB-treated control wells were included. Experiments were done in triplicate and approximate IC50 determined.

[6] = ED50 (50% growth inhibition), constant ratio Dn:DhiS-A (AmB 0.01:15; Sb^III 1:1; PMM 5:1)
[7] = ED75 (75% growth inhibition), constant ratio Dn:DhiS-A (AmB 0.01:15; Sb^III 1:1; PMM 5:1)
[8] = ED90 (90% growth inhibition), constant ratio Dn:DhiS-A (AmB 0.01:15; Sb^III 1:1; PMM 5:1)

Molecule	CI value of combination Dn + DhiS-A [4, 6]	Dose Required of Dn in combination with DhiS-A ([4]; ED50) [µM]	DRI of Dn in combination with DhiS-A ([4]; ED50)	CI value of combination Dn + DhiS-A [4, 7]	Dose Required of Dn in combination with DhiS-A ([4]; ED75) [µM]	DRI of Dn in combination with DhiS-A ([4]; ED75)	CI value of combination Dn + DhiS-A [4, 8]	Dose Required of Dn in combination with DhiS-A ([4]; ED90) [µM]	DRI of Dn in combination with DhiS-A ([4]; ED90)	Dose Required of Dn in combination with DhiS-A ([4]; ED95) [µM]	Type of interaction with DhiS-A [4]	inhibition of growth at 120 µM ([1]; Leishmania infantum) [%]	inhibition of growth at 120 µM [2] [%]	further results
C[C@@H]1[C@H](O)[C@@H](C)/C=C/C=C/C=C/C=C/C=C/C=C/C=C/[C@H](O[C@@H]2O[C@H](C)[C@@H](O)[C@H](N)[C@@H]2O)C[C@@H]2O[C@](O)(C[C@@H](O)C[C@@H](O)[C@H](O)CC[C@@H](O)C[C@@H](O)CC(=O)O[C@H]1C)C[C@H](O)[C@H]2C(=O)O [AmB, amphotericin B]	1.06 (additive effect)	0.038	2.64	0.92 (additive effect)	0.048	2.54	0.81 (moderate synergism)	0.062	2.39	0.074	moderate synergism	–	–	IC50 ([1]; Leishmania infantum): ~0.06 µM; IC50 ([2]; approximate, dose-response curve): ~0.06 µM; Reduction of the number of Mφ infected, Li ([3]; 0.1 µM): 50.0 ± 6.93%; Reduction of the number of amastigotes/100 Mφ, Li ([3]; 0.1 µM): 57.63 ± 11.47%; CI value of combination Dn + DhiS-A ([4]; ED10 (10% growth inhibition), constant ratio Dn:DhiS-A (AmB 0.01:15)): 1.49 (antagonism); Dose Required of Dn in combination with DhiS-A ([4]; ED10): 0.023 µM; DRI of Dn in combination with DhiS-A ([4]; ED10): 2.85; CI value of combination Dn + DhiS-A ([4]; ED25 (25% growth inhibition), constant ratio Dn:DhiS-A (AmB 0.01:15)): 1.24 (moderate antagonism); Dose Required of Dn in combination with DhiS-A ([4]; ED25): 0.030 µM; DRI of Dn in combination with DhiS-A ([4]; ED25): 2.74
COc1cc([C@@H]2[C@H]3CO[C@@]4(O)C(=O)[C@@H]2C=C([C@H]2Oc5cc(O)cc(O)c5C(=O)[C@@H]2O)[C@@H]34)ccc1O [Silydianin, silydianin]	–	–	–	–	–	–	–	–	–	–	–	16.4 ± 8.63	20.5 ± 3.08	–
COc1cc([C@H]2Oc3ccc([C@H]4Oc5cc(O)cc(O)c5C(=O)[C@@H]4O)cc3O[C@@H]2CO)ccc1O [Isosilybin A, isosilybin A]	–	–	–	–	–	–	–	–	–	–	–	6.94 ± 6.43	30.6 ± 5.85	–
COc1cc([C@H]2Oc3cc(-c4oc5cc(O)cc(O)c5c(=O)c4O)ccc3O[C@@H]2CO)ccc1O [Dehydrosilybin A, dehydrosilybin A]	–	–	–	–	–	–	–	–	–	–	–	10.2 ± 6.97	-38.7 ± 5.41	Reduction of Mφ infection, Li ([3]; 10 µM): 40.13 ± 12.6%; Reduction of intracellular amastigotes, Li ([3]; 10 µM): over 50%; IC50 [5]: ~60 µM
COc1cc(C2C3C=C(c4oc5cc(O)cc(O)c5c(=O)c4O)C4C2COC4(O)C3=O)ccc1O (centres unmarked) [Dehydrosilydianin, dehydrosilydianin]	–	–	–	–	–	–	–	–	–	–	–	42.2 ± 5.42	29.8 ± 2.17	Emax ([1]; Leishmania infantum, exploratory screening, 0.94 µM up to 120 µM, read-out: Maximal effect (inhibition of growth of control cultures) on Li promastigotes): < 50%
potassium tartrate of antimonium III [Sb^III]	1.89 (antagonism)	56	0.82	2.09 (antagonism)	141.12	0.92	2.50 (antagonism)	355.63	1.04	666.84	antagonists	–	–	IC50 [1]: ~80.6 µM; CI value of combination Dn + DhiS-A ([4]; ED95 (95% growth inhibition), constant ratio Dn:DhiS-A (AmB 0.01:15; Sb^III 1:1; PMM 5:1)): 2.93 (antagonism); DRI of Dn in combination with DhiS-A ([4]; ED95): 1.13
